In patent US20190031665A1, “DERIVATIVES OF PYRROLOIMIDAZOLE OR ANALOGUES THEREOF WHICH ARE USEFUL FOR THE TREATMENT OF INTER ALIA CANCER” (EMCURE PHARMACEUTICALS LIMITED, priority 2016, published 2019):

What was measured:
[1] = biological target: T1, human indoleamine 2,3-dioxygenase 1 (hIDO1) (Homo sapiens, UniProt P14902); test: In-vitro human indoleamine 2,3-dioxygenase 1 (IDO1) enzyme assay; assay type: biochemical; settings: for inhibition at 1 µM: hIDO1 enzyme at 1.0 μM concentration; for inhibition at 10 µM: hIDO1 enzyme at 10.0 μM concentration; for IC50: hIDO1 enzyme
T1 construct: His tag (N); purchased BPS Bioscience, San Diego, Calif., USA; host or cells: E. coli
T1 sequence (P14902 whole entry): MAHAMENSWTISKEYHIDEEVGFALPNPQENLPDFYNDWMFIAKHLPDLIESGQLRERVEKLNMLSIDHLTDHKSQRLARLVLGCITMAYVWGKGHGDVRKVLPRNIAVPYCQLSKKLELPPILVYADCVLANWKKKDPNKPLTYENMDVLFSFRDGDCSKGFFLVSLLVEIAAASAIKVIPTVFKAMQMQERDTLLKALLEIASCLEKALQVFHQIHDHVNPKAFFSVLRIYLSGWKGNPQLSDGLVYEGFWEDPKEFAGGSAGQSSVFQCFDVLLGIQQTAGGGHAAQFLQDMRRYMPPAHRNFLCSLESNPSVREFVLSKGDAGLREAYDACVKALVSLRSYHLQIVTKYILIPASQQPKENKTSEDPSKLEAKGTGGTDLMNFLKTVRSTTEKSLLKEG
Outline: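 His-tagged hIDO1 (E. coli, 50 ng) incubated with 80 μM tryptophan, 10 mM ascorbate, 10 μM methylene blue, catalase and 0.01% Tween-20 in 50 mM sodium phosphate pH 6.5, 60 min, 37 °C. Piperidine converts N-formylkynurenine to fluorescent NFK-PIP (ex 400/em 500 nm); IC50 by nonlinear regression.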

[2] = biological target: T2, human tryptophan 2,3-dioxygenase (hTDO) (Homo sapiens, UniProt P48775); test: In-vitro human tryptophan 2,3-dioxygenase (TDO) enzyme assay; assay type: biochemical; settings: for inhibition at 1 µM: hTDO enzyme at 1.0 μM concentration; for inhibition at 10 µM: hTDO enzyme at 10.0 μM concentration
T2 construct: His tag (N); purchased BPS Bioscience, San Diego, Calif., USA; host or cells: E. coli
T2 sequence (P48775 whole entry): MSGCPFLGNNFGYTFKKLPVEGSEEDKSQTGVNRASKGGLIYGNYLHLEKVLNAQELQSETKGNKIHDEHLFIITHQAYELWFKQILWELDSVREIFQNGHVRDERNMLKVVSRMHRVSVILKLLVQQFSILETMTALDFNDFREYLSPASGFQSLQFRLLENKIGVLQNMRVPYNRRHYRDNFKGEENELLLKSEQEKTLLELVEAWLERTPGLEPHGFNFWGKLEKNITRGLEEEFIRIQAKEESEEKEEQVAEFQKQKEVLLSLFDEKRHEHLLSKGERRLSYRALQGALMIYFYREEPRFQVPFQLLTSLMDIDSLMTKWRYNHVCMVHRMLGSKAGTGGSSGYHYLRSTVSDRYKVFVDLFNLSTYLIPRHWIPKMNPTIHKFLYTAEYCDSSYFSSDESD
Outline: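 N-His-tagged hTDO expressed in E. coli (125 ng) incubated with 200 μM L-tryptophan, 100 mM sodium phosphate pH 7.0, 0.01% Tween-20, 100 μM ascorbate, 60 min at 37 °C. Product converted with 200 mM piperidine (65 °C, 20 min) to NFK-PIP, fluorescence 400/500 nm; IC50 by nonlinear regression.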

Row | Structure (SMILES) | inhibition at 1 µM [1] [%] | inhibition at 10 µM [1] [%] | inhibition at 1 µM [2] [%] | IC50 [1] [nM] | inhibition at 10 µM [2] [%]
1 | CC1=C(c2ccccc2)C(CC(O)C2CCN(Cc3ccccc3)CC2)n2cncc21 (centres unmarked) [Example 141] | ≤ 50 | ≤ 50 | ≤ 50 | – | –
2 | CC1=C(c2ccccc2)C(CC(=O)C2CCN(C(=O)c3ccccc3)CC2)n2cncc21 (centres unmarked) [Example 142] | ≤ 50 | ≥ 50 | ≥ 50 | – | –
3 | CC1=C(c2ccccc2)C(CC(=O)C2CCN(S(=O)(=O)c3ccccc3)CC2)n2cncc21 (centres unmarked) [Example 143] | ≤ 50 | ≥ 50 | ≥ 50 | – | –
4 | CC1=C(c2ccccc2)C(CC(O)C2CCN(C(=O)c3ccccc3)CC2)n2cncc21 (centres unmarked) [Example 144] | ≥ 50 | ≥ 50 | ≤ 50 | < 500 | –
5 | CC1=C(c2ccccc2)C(CC(O)C2CCN(S(=O)(=O)c3ccccc3)CC2)n2cncc21 (centres unmarked) [Example 145] | ≥ 50 | ≥ 50 | ≥ 50 | < 500 | –
6 | CCOC(=O)N1CCC(C(=O)CC2C(c3ccccc3)=C(C)c3cncn32)CC1 (centres unmarked) [Example 146] | ≤ 50 | ≥ 50 | ≤ 50 | – | –
7 | CC1=C(c2ccccc2)C(CC(=O)C2CCN(C(=O)C3CCCCC3)CC2)n2cncc21 (centres unmarked) [Example 147] | ≤ 50 | ≥ 50 | ≤ 50 | – | –
8 | CCOC(=O)N1CCC(C(O)CC2C(c3ccccc3)=C(C)c3cncn32)CC1 (centres unmarked) [Example 148] | ≥ 50 | ≥ 50 | ≤ 50 | < 500 | –
9 | CC1=C(c2ccccc2)C(CC(O)C2CCN(C(=O)C3CCCCC3)CC2)n2cncc21 (centres unmarked) [Example 149] | ≥ 50 | ≥ 50 | ≤ 50 | < 500 | –
10 | CC1=C(c2ccccc2)C(CC(O)C2CCN(C(=O)c3ccccn3)CC2)n2cncc21 (centres unmarked) [Example 152] | ≤ 50 | ≥ 50 | ≤ 50 | > 500 | –
11 | CC1=C(c2ccccc2)C(CC(O)C2CCN(C(=O)c3cccnc3)CC2)n2cncc21 (centres unmarked) [Example 157] | ≥ 50 | ≥ 50 | ≤ 50 | > 500 | –
12 | CC1=C(c2ccccc2)C(CC(O)C2CCN(C(=O)Nc3ccccc3)CC2)n2cncc21 (centres unmarked) [Example 158, 4-[1-Hydroxy-2-(7-methyl-6-phenyl-5H-pyrrolo[1,2-c]imidazol-5-yl)-ethyl]-piperidine-1-carboxylic acid phenyl amide] | ≥ 50 | ≥ 50 | ≥ 50 | < 500 | –
13 | CC1=C(c2ccccc2)C(CC(=O)C2CN(C(=O)c3ccccc3)C2)n2cncc21 (centres unmarked) [Example 159, 1-(1-Benzoyl-azetidin-3-yl)-2-(7-methyl-6-phenyl-5H-pyrrolo[1,2-c]imidazol-5-yl)-ethanone] | ≤ 50 | ≥ 50 | ≤ 50 | – | –
14 | CC1=C(c2ccccc2)C(CC(O)C2CCN(C(=O)c3ccncc3)CC2)n2cncc21 (centres unmarked) [Example 162] | ≤ 50 | ≥ 50 | ≤ 50 | – | –
15 | CC1=C(c2ccccc2)C(CC(O)C2CCN(S(=O)(=O)C3CCCCC3)CC2)n2cncc21 (centres unmarked) [Example 163, 1-(1-Cyclohexanesulfonyl-piperidin-4-yl)-2-(7-methyl-6-phenyl-5H-pyrrolo[1,2-c]imidazol-5-yl)-ethanol] | ≥ 50 | ≥ 50 | ≥ 50 | < 500 | –
16 | CC1=C(c2ccccc2)C(CC(O)C2CCN(C(=O)c3ccnc(C)c3)CC2)n2cncc21 (centres unmarked) [Example 164, {4-[1-Hydroxy-2-(7-methyl-6-phenyl-5H-pyrrolo[1,2-c]imidazol-5-yl)-ethyl]-piperidin-1-yl}-(2-methyl-pyridin-4-yl)-methanone] | ≤ 50 | ≥ 50 | ≤ 50 | – | –
17 | CC1=C(c2ccccc2)C(CC(O)C2CCN(S(C)(=O)=O)CC2)n2cncc21 (centres unmarked) [Example 165] | ≤ 50 | ≥ 50 | ≤ 50 | – | –
18 | CC1=C(c2ccccc2)C(CC(O)C2CCN(C(=O)Nc3ccccn3)CC2)n2cncc21 (centres unmarked) [Example 167] | ≥ 50 | ≥ 50 | ≤ 50 | < 500 | –

Row | Structure (SMILES) | inhibition at 1 µM [1] [%] | inhibition at 10 µM [1] [%] | inhibition at 1 µM [2] [%] | IC50 [1] [nM] | inhibition at 10 µM [2] [%]
19 | CC1=C(c2ccccc2)C(CC(F)C2CCCCC2)n2cncc21 (centres unmarked) [Example 168, 5-(2-Cyclohexyl-2-fluoro-ethyl)-7-methyl-6-phenyl-5H-pyrrolo[1,2-c]imidazole] | ≥ 50 | ≥ 50 | ≥ 50 | > 500 | ≥ 50
20 | O=C(CC1C(c2ccccc2)=Cc2cncn21)c1ccccc1 (centres unmarked) [Example 169, 1-Phenyl-2-(6-phenyl-5H-pyrrolo[1,2-c]imidazol-5-yl)-ethanone] | ≤ 50 | ≥ 50 | – | – | ≥ 50
21 | CCCCC(O)CC1C(c2ccccc2)=C(C)c2cncn21 (centres unmarked) [Example 170, 1-(7-Methyl-6-phenyl-5H-pyrrolo[1,2-c]imidazole-5-yl)-hexan-2-ol] | ≤ 50 | ≥ 50 | ≥ 50 | > 500 | ≥ 50
22 | CCOC(=O)CCC(=O)CC1C(c2ccccc2)=C(C)c2cncn21 (centres unmarked) [Example 173, Ethyl 5-(7-methyl-6-phenyl-5H-pyrrolo[1,2-c]imidazol-5-yl)-4-oxopentanoate] | ≤ 50 | ≥ 50 | ≤ 50 | – | –
23 | CC1=C(c2ccccc2)C(CC(O)CCC(=O)N2CCC(O)CC2)n2cncc21 (centres unmarked) [Example 174, 4-Hydroxy-1-(4-hydroxypiperidin-1-yl)-5-(7-methyl-6-phenyl-5H-pyrrolo[1,2-c]imidazol-5-yl)pentan-1-one] | ≤ 50 | ≥ 50 | ≤ 50 | – | –
24 | CC1=C(c2ccccc2)C(CC(=O)c2ccc(NC(=O)Cc3ccccc3F)cc2)n2cncc21 (centres unmarked) [Example 176, 2-(2-fluorophenyl)-N-(4-(2-(7-methyl-6-phenyl-5H-pyrrolo[1,2-c]imidazol-5-yl)acetyl)phenyl)acetamide] | ≥ 50 | ≥ 50 | ≥ 50 | < 500 | –
25 | CC1=C(c2ccccc2)C(CC(=O)C2CCC(=NO)CC2)n2cncc21 (centres unmarked) [Example 177, 4-[2-(7-Methyl-6-phenyl-5H-pyrrolo[1,2-c]imidazol-5-yl)-acetyl]-cyclohexanone oxime] | ≤ 50 | ≥ 50 | ≥ 50 | – | –
26 | CC1=C(c2ccccc2)C(CC(O)C2CCC(=NO)CC2)n2cncc21 (centres unmarked) [Example 178, 4-[1-Hydroxy-2-(7-methyl-6-phenyl-5H-pyrrolo[1,2-c]imidazol-5-yl)-ethyl]-cyclohexanone oxime] | ≥ 50 | ≥ 50 | ≤ 50 | < 500 | –
27 | CC1=C(c2ccccc2)C(CC(O)C2CCN(C(=O)NC3CCCCC3)CC2)n2cncc21 (centres unmarked) [Example 179] | ≥ 50 | ≥ 50 | ≤ 50 | < 500 | –
28 | CC1=C(c2ccccc2)C(CC(O)C2CCN(C(=O)Cc3ccccc3)CC2)n2cncc21 (centres unmarked) [Example 180] | ≥ 50 | ≥ 50 | ≥ 50 | < 500 | –
29 | CC1=C(c2ccccc2)C(CC(O)C2CCN(C(=O)Nc3cccc(Cl)c3)CC2)n2cncc21 (centres unmarked) [Example 181] | ≥ 50 | ≥ 50 | ≤ 50 | < 500 | –
30 | CC1=C(c2ccccc2)C(CC(O)C2CCN(C(=O)Nc3ccc(F)c(Cl)c3)CC2)n2cncc21 (centres unmarked) [Example 182] | ≥ 50 | ≥ 50 | ≤ 50 | < 500 | –
31 | CC1=C(c2ccccc2)C(CC(O)C2CCN(C(=O)Nc3cccc(C)n3)CC2)n2cncc21 (centres unmarked) [Example 183] | ≥ 50 | ≥ 50 | ≤ 50 | < 500 | –
32 | CC1=C(c2ccccc2)C(CC(O)C2CCC(F)(F)CC2)n2cncc21 (centres unmarked) [Example 184] | ≥ 50 | ≥ 50 | ≥ 50 | < 500 | –
33 | CC1=C(c2ccccc2)C(CC(O)C2CCC(c3ccccc3)CC2)n2cncc21 (centres unmarked) [Example 186] | ≥ 50 | ≥ 50 | ≤ 50 | < 500 | –
34 | CC1=C(c2ccccc2)C(CC(O)C2CCN(C(=O)C(C)C)CC2)n2cncc21 (centres unmarked) [Example 187] | ≥ 50 | ≥ 50 | ≤ 50 | > 500 | –
35 | CC1=C(c2ccccc2)C(CC(O)C2CCN(c3ccccn3)CC2)n2cncc21 (centres unmarked) [Example 188, 2-(7-methyl-6-phenyl-5H-pyrrolo[1,2-c]imidazol-5-yl)-1-(1-(pyridin-2-yl)piperidin-4-yl)ethan-1-ol] | ≤ 50 | ≥ 50 | ≤ 50 | – | –
